Laboratory results as given in patent US20200215537A1, “ULTRASENSITIVE CANTILEVER” (3P SENSE LIMITED, priority 2017, published 2020).
Like-named read-outs stand apart in the source and are kept apart here. Each block holds one compound with its values, some of them ahead of it.

What was measured:
[1] = test system: vancomycin susceptible receptor (VSR); assay: Cantilever binding assay, vancomycin against VSR coated cantilevers
Procedure: (§1) In the case of preparation of unpassivated cantilever, SAMs of D-VSR, L-VSR and inert PEG molecules were diluted to a concentration of 1 μM in pure ethanol. The diluted SAMs were individually injected into glass capillary tubes (King Precision Glass, Claremont, Calif., USA) which were arranged on the functionalization stage. The cantilevers were then functionalized by incubating them with individual SAMS inside the glass capillaries for 20 min. Care was taken to ensure that the hinge region was entirely covered with the SAM solution in order to ensure mechanical connectivity between the transduction arrays and hinge region.
The finding that a signal response is detectable even when the assembling of array networks is confined to only 30 μm of the geometrical width of the region covered while the corresponding geometeric length is fixed at 500 μm of the cantilever, prompted us to examine whether changing the dimensions of the cantilever itself whilst maintaining the mechanical connectivity of surface receptors has any impact on the signal sensitivity and reproducibility. This is because the dimensions of a sensing element can greatly impact on the signal response in several ways (1) the threshold size of the ligand capture cross-section area that is able to generate mechanical signaling decreases when the size of the sensing element is reduced, (2) the biomechanical force impacting on the sensing element is more pronounced for a narrow sensing element, and (3) the narrower the sensing element, the less rigid it is and the more responsive it will be to molecular forces. Further, continuous mechanical connectivity can be effected by the edging effects at the perimeter of the sensor itself and its impact would be more pronounced for narrower sensing elements (FIG. 1b). The effect on signal response by reducing the conventional cantilever width from 100 μm to 70 μm whilst keeping the length and thickness at 500 μm and 1 μm, respectively, was examined. These dimensions were chosen because they enable the narrowed cantilever to be used with standard instruments without the need for redesigning equipment. In addition, at this width the cantilever is less affected by the capillary forces and static charges which may render careful alignment of the scanning laser at the free-end more difficult. For this experiment vancomycin (Van) as the reporter molecule and vancomycin-susceptible receptor (or VSR)^21 as its target were used. Van is the Food and Drug Administration (FDA)-approved drug of last resort for clinical treatment of MRSA and clostridium difficile infections^38,39. This particular system was chosen because it gives relatively large signals and it has been previously shown that the quantitative Van-VSR binding constants can be measured^21 and so it can be used to redefine the limit of recognition of biologically relevant systems. The entire surface of the cantilever including the hinge region was coated with VSR using glass capillares (See Cantilever functionalization with surface target molecules). Artefacts that produce non-specific signals were overcome by performing differential measurements where the reference mercaptoundecyl tri(ethylene glycol) thiol (PEG)-coated cantilever signals was subtracted from the VSR signals. […] The signal response obtained from all three cantilevers was highly consistent and almost identical over a 60 min time period. Moreover, the compressive signal response was relatively high averaging −400±30 pN with a signal-to-noise ratio (SNR) of 7. […] Next, the impact of different concentrations on signal response initially fixed at 20, 50, 500 and 1000 nM (FIG. 4b-d) was examined. […] The thermodynamic pseudo-equilibrium signal response was attained at 60 and 50 min for 20 nM and 50 nM Van, respectively. In contrast, the thermodynamic pseudo-equilibrium was achieved within 6 min or less for Van concentrations ≥500 nM. […]

[2] = test system: D-VSR; assay: Cantilever binding assay against D-VSR coated cantilevers
Procedure: as §1
(§2) Finally, learning from enantiomeric molecules, although identical in structure and are mirror images of one another with different physical characteristics, could be used to test the impact of the regulatory connectivity networks on the biomechanical forces involved in molecular interactions. So it was inferred that in chiral species the level of complementarity between a drug and its target will lead to different assemblies across the mirror images of the surface receptors and this can be reflected in the distinguishable biomechanical forces. To test this concept the interaction of the D-VSR and its corresponding mirror image (L-VSR) (see, Cantilever functionalization with surface target molecules) with the antibiotic drug vancomycin was studied. D-VSR is an enantiomer predominantly found in bacterial cell walls whereas L-VSR is not produced by bacteria. […] The mechanical response obtained using a high concentration of Van (50 μM) against 100 μm wide parallel transduction arrays of D-VSR and L-VSR was initially tested. […] In contrast the signal response of Van against L-VSR was very small ˜−200 pN, approximately 20 times smaller than with D-VSR (FIG. 5a). The experiment was repeated using a wide range of different concentrations of Van (0.1-1000 μM) on at least four separate chips.
(§3) Functionalized cantilever chips were mounted in a sealed liquid cell environment and a time-multiplexed optical laser readout system (Scentris, Veeco Instruments Inc., Santa Barbara, Calif., USA) was used to measure the cantilever bending. The laser alignment was considered successful if the difference between the minimum and maximum deflection was <5% when the cell temperature was raised by 1° C. for 10 min followed by 10 min cooling to room temperature. […]
(§4) The biomechanical force data from ligand-receptor interactions were measured as follows: sodium phosphate buffer (pH 7.4, 0.1 M) was injected into the cell for either 3 or 10 min to establish a baseline. […] Cantilever bending signals were measured in a fixed temperature-controlled hood at 25° C. using a liquid flow rate of 30-180 μL min^−1. […]

[3] = test system: L-VSR; assay: Cantilever binding assay against L-VSR coated cantilevers; conditions: for biomechanical force / signal response: 50 μM ligand, sodium phosphate buffer pH 7.4, L-VSR coated cantilevers; for signal response over concentration range: all concentrations of ligand
Procedure: as §1, §2, §3, §4

[4] = SPR; cited from earlier work
[5] = solution; cited from earlier work

Compound: CN[C@H](CC(C)C)C(=O)N[C@H]1C(=O)N[C@@H](CC(N)=O)C(=O)N[C@H]2C(=O)N[C@H]3C(=O)N[C@H](C(=O)N[C@H](C(=O)O)c4cc(O)cc(O)c4-c4cc3ccc4O)[C@H](O)c3ccc(c(Cl)c3)Oc3cc2cc(c3O[C@@H]2O[C@H](CO)[C@@H](O)[C@H](O)[C@H]2O[C@H]2C[C@](C)(N)[C@H](O)[C@H](C)O2)Oc2ccc(cc2Cl)[C@H]1O [Van, vancomycin]
- signal response ([1]; 500 pM Van, 100 μm wide cantilevers): no signal response
- mechanical force / signal response ([1]; 500 pM Van, pH 7.4, small sized (70 μm wide) cantilever, three separate cantilevers): −400±30 pN
- Van concentration at which signal response reached a plateau ([1]; 0.0005 μM to 250 μM Van, narrow cantilevers): 10 µM
- time to thermodynamic pseudo-equilibrium signal response ([1]; 20 nM Van): 60 min
- biomechanical force response ([1]; 20 nM Van, small sized cantilever): ~−500 pN
- time to thermodynamic pseudo-equilibrium signal response ([1]; 50 nM Van): 50 min
- biomechanical force response ([1]; 50 nM Van, small sized cantilever): ~−1500 pN
- biomechanical force response ([1]; 500 nM Van, small sized cantilever): ~−3000 pN
- mechanical force response ([1]; 1 μM Van, 3 separate small sized cantilevers): ~−5000±400 pN
- signal response ([1]; 1 μM Van, conventional 100 μm wide cantilevers): −120 nm
- Kd ([1]; 100 μm and 70 μm cantilevers, read-out: Kd (surface thermodynamic equilibrium dissociation constant, equation (1))): 500 ± 100 nM
- time to thermodynamic pseudo-equilibrium ([1]; Van concentrations ≥500 nM): ≤ 6 min
- reversibility of signal response ([1]; all concentrations of Van): reversible
- mechanical forces arising from [Van] against VSR (plot) ([1]; large sized cantilever): ~−3800 pN
- mechanical forces arising from [Van] against VSR (plot) ([1]; small sized cantilever): ~−6900 pN
- ratio of signal response D-VSR versus L-VSR ([2]; 50 μM ligand): approximately 20 times
- ligand concentration at which plateau was reached ([2]; 0.1-1000 μM Van): 50 µM
- biomechanical force / signal response [3]: ~−200 pN
- signal response over concentration range [3]: only a small signal response
- Kd [4]: 1000 ± 300 nM
- Kd [5]: 700 nM

- ratio of signal response D-VSR versus L-VSR ([2]; 50 μM ligand): approximately 3 times
- biomechanical force / mechanical response ([2]; 50 μM ligand, sodium phosphate buffer pH 7.4, D-VSR coated 100 μm wide cantilevers): ~−5000 pN
- biomechanical force / signal response [3]: ~−2000 pN
- signal response over concentration range [3]: remained small compared to D-VSR
Compound: ristocetin
